The values below come from patent US20140249191A1, “Compositions for Controlling Vascularization in Ophthalmological and Dermatological Diseases” (AVIENNE PHARMACEUTICALS GMBH, priority 2011, published 2014).

The test system of data set [1] is SAOS-2, Hela, HT29, U87MG and SK-N-DZ cells. Description: Cytotoxic activity in cancer cell lines (cell numbers). The data set is classed as cell-based. To be noted: up to 20 μM; uncoated dishes or coated with vitronectin or fibrinogen. On the procedure: For example, cytotoxic activity of AV-398 was determined in several cancer cell lines (SAOS-2, Hela, HT29, U87MG and SK-N-DZ cells) by assessing cell numbers after treating cell lines with varying concentration of up to 20 μM. Experiments were performed either on uncoated dishes, or on dishes coated with vitronectin or fibrinogen. In addition, tumor cell lines were treated in parallel with echistatin (Gan Z R et al (1998)). […] Similar data were recently published showing cytotoxic activity also only against MDA-MB-435 breast cancer cells (Dayam R et al, 2006).

A further data set deals with ocular angiogenesis. Nature of the data set: Conjunctival incision ocular angiogenesis model. The data set is classed as in vivo, white pigs. To be noted: pigs, eye drops 100 μg/ml. The source says:
AV-398 inhibits ocular angiogenesis in vivo in a widely accepted large animal model. The cornea is an ideal model system for angiogenesis in general, and more specifically for angiogenesis of the eye. The corneal angiogenesis assay is one of the most widely used in vivo assay for the evaluation of factors influencing angiogenesis (Auerbach R, 2003, Thiele W, 2006). One reason that makes the cornea an ideal object for observing neovascularisation is its normal lack of vascularity, maintained by different molecular mechanisms. New vessels can easily be identified by visual inspection alone and quantified with the help of computerized image analysis programs. The effect of an ophthalmological formulation of AV-398 after a conjunctival insult with subsequent angiogenesis in a large animal model was investigated in order to test whether the in vitro data, such as anti-proliferative effects on human endothelial cells, could be reproduced in vivo. Six white pigs weighing 10 to 15 kg were included. First, corneae and conjunctivae were anaesthesized by local application of lidocaine 4%. Then, an incision of 0.5 cm length through the conjunctival tunica sclerae to the substantia propria was placed in parallel to the dorsal corneal limbus at a distance of approximately 2 mm. The animals were treated as follows. […]

Another data set addresses αvβ3-receptor (Homo sapiens, UniProt P05106+P06756). Particulars: Dayam et al, 2006; cited from earlier work.
The test system of data set [2] is endothelial cells of different origin (lung, lymphatics and umbilical). Nature of the data set: Endothelial cell proliferation assay (direct cell counting). The data set is classed as cell-based, human. As to the method:
Primary endothelial cell lines (HMVEC-dLyAd—human dermal lymphatic microvascular endothelial cells (EC), dermal blood microvascular EC, HMVEC-LB lung blood microvascular EC, HMVEC-C cardiac human microvascular endothelial cells and MVEC-d—dermal microvascular EC) are from Cambrex Bio Science (Cambrex Bio Science Walkersville Inc., Walkersville, Md., USA). Cell lines are cultured according to the manufacturer's recommendations.
For proliferation assays, cells are seeded in 24- to 96-well plates in medium at different concentrations according to the cell type. After 24 hours, the medium is removed and replaced with fresh medium containing increasing concentrations of the compounds. The plates are then incubated for additional 24 to 72 hours, depending on the type of the experiment. Cells are then trypsinized and collected for direct counting. Results are plotted and expressed as means (±SE) for each compound and for a given concentration.

In data set [3] the test system is chorioallantoic membrane vascularisation. Description: Chorioallantoic membrane (CAM) assay. The data set is classed as in vivo, chicken embryo. To be noted: applied on CAM day 6 p.f., incubated until day 11 p.f. The source says:
Local Application of AV-398 inhibits in vivo angiogenesis as evidenced by the chicken egg chorioallantoic membrane model. The chorioallantoic membrane (CAM) of the developing chicken embryo serves as an alternative to the traditional mammalian in vivo models, and further corroborates the findings in pigs described above and has clear relevance for the treatment e.g. dermatological indications linked to neoangiogenesis. AV-398 was applied over 5 days.
Eggs were opened on day 6 post fertilization (p.f.). Substances (200 μl respectively) were applied on the CAM on day 6 p.f. and incubated until day 11 p.f. As a vehicle control, 1% DMSO in PBS (phosphate-buffered saline solution pH 7.4) without AV-398 was used. Eggs were inspected daily by stereo-microscopy and pictures were taken (6× magnification).

“Also recorded” adds a separate entry of the source.

αvβ3-receptor, sequence (P06756 31-889 limits assumed): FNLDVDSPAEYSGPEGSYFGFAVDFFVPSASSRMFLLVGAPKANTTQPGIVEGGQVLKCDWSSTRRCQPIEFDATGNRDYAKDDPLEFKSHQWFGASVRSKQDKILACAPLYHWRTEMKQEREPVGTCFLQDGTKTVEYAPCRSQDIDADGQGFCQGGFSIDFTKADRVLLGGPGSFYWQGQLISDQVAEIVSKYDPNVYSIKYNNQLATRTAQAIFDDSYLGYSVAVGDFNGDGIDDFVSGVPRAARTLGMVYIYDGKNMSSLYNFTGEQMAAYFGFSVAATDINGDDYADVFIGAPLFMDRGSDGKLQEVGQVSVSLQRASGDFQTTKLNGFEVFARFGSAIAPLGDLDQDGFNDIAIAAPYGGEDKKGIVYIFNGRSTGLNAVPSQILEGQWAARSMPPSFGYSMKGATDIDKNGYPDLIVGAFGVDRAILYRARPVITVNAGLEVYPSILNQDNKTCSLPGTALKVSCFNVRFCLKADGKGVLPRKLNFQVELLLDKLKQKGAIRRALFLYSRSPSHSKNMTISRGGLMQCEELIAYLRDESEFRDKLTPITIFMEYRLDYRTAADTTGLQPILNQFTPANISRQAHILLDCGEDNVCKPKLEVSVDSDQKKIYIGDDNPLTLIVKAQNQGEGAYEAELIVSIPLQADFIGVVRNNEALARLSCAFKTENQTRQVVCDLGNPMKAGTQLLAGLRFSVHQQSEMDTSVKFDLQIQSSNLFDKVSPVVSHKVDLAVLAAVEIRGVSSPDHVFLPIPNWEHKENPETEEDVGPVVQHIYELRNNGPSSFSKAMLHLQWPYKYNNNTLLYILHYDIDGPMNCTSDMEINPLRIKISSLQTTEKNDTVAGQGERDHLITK
αvβ3-receptor, sequence (P06756 891-1048 partner limits assumed): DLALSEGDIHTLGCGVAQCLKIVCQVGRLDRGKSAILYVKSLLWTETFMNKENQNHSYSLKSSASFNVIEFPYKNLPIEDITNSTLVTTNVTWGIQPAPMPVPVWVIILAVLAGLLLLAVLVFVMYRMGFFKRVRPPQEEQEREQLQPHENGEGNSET
αvβ3-receptor, sequence (P05106 27-788): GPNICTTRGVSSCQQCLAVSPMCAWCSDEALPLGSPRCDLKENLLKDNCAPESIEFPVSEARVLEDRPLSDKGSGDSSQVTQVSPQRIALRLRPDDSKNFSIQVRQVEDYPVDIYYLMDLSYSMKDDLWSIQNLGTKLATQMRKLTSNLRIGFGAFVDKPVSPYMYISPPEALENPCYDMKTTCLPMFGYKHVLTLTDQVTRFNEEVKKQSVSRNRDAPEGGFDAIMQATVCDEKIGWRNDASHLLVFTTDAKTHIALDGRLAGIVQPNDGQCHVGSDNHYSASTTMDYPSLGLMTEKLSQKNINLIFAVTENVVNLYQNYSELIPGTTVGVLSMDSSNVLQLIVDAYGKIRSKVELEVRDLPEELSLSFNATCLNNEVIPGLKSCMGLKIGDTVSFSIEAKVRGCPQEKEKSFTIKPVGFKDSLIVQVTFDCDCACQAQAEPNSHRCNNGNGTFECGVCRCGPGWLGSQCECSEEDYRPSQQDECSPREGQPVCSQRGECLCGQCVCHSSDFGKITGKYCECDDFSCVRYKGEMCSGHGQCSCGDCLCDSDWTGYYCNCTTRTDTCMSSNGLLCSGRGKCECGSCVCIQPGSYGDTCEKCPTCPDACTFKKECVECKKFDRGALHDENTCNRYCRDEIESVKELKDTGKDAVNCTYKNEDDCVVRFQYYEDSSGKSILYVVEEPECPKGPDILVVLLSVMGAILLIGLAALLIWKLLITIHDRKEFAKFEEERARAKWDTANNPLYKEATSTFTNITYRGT

As for `CCOc1cc(C=C2S/C(=N/c3ccc(C(=O)O)cc3)N(C)C2=O)ccc1O` (stereo in doubt) [AV-398, 4-({5-[(E)-1-(3-ethoxy-4-hydroxyphenyl)methylidene]-3-methyl-4-oxo-1,3-thiazolan-2-yliden}amino)benzoic acid], the “effects on cancer cell lines (cytotoxic activity)” value in data set [1] was “no meanigful effects”. Further, the “bleeding surrounding the incision immediately after treatment” value with ocular angiogenesis is recorded as “marked diffuse bleeding”. Moreover, the “neoangiogenesis on treated conjunctivae versus control-treated eyes” value in the data set on ocular angiogenesis (topical after incision) is “diminished neoangiogenesis”. In addition, on αvβ3-receptor, the avβ3 binding affinity is 240 nM. In data set [2], the “antiproliferative effect against endothelial cells” value is recorded as “strong antiproliferative effect”. For the same molecule, in data set [3], the “vascularisation of chicken embryo CAM versus vehicle control” value was “markedly decreased vascularisation; also recorded: significant reduction of vascularisation”.
